Results on 13 compounds are retold here after ChEMBL document CHEMBL1153660, “Synthesis and pharmacological properties of BW315c and other inotropic 2-arylimidazo[1,2-a]pyrazines” (Bioorg Med Chem Lett, 1993).

What is called ED50 is the dose that gives a 50% effect, or the effect in half of the subjects. Read a high ED50 as a need for a large dose.

Assay [1] is filed under the species Canis familiaris. The assay can be described thus: 10% increase in heart rate in open chest dogs. It counts as functional. The note with it: Canis lupus familiaris.
Assay [2] is described as follows: Ratio of ED50 (increased ventricular pressure) to ED30 (diastolic blood pressure). The class given is functional, Artery.
The test system of assay [3] is Canis familiaris. The assay can be described thus: Time required for inotropic response at 0.80 mg/kg dose; range 45-60. The class given is functional, Canis lupus familiaris. The settings on record: dose 0.8 mg/kg.
Assay [4] relates to Canis familiaris. The assay can be described thus: Time required for vasodilator response at 0.80 mg/kg dose; range 2-15. The class given is functional, Canis lupus familiaris. The note with it: dose 0.8 mg/kg.
Assay [5] is filed under the species Canis familiaris. The assay can be described thus: 30% decrease in diastolic blood pressure in open chest dogs. The note with it: Canis lupus familiaris, Artery. The class given is functional.
The species entered for assay [6] is Cavia porcellus. The assay can be described thus: In vitro 50% increase in basal contractile force of paced guinea pig papillary muscle (insoluble). It counts as functional, organism-based. The settings on record: Muscle tissue.
Assay [7] concerns Canis familiaris. The assay can be described thus: In vivo 50% increase in left ventricular pressure in open chest dogs. The class given is functional. The note with it: Canis lupus familiaris, Heart left ventricle.
The subject of assay [8] is Canis familiaris. The assay can be described thus: Time required for vasodilator response at 0.80 mg/kg dose. It counts as functional, Canis lupus familiaris. The settings on record: dose 0.8 mg/kg.
The subject of assay [9] is Canis familiaris. The assay can be described thus: Time required for inotropic response at 0.80 mg/kg dose. It counts as functional, Canis lupus familiaris. The settings on record: dose 0.8 mg/kg.
The species entered for assay [10] is Cavia porcellus. The assay can be described thus: In vitro 50% increase in basal contractile force of paced guinea pig papillary muscle. The class given is functional, Muscle tissue.
The species named for assay [11] is Cavia porcellus. The assay can be described thus: In vitro 50% increase in basal contractile force of paced guinea pig papillary muscle (inactive). It counts as functional. The note with it: Muscle tissue.
Assay [12] concerns Canis familiaris. The assay can be described thus: Time required for vasodilator response at 0.80 mg/kg dose; range 15-30. It counts as functional, Canis lupus familiaris. The note with it: dose 0.8 mg/kg.
Assay [13] concerns Canis familiaris. The assay can be described thus: Time required for inotropic response at 0.80 mg/kg dose; range 20-30. The class given is functional, Canis lupus familiaris. The note with it: dose 0.8 mg/kg.
A further assay concerns the target Phosphodiesterase 3 (Homo sapiens, UniProt Q14432+Q13370). The assay can be described thus: Concentration of compound required for 50% inhibition of type III cAMP phosphodiesterase from dog ventricles, activity expressed as pIC50. The class given is protein assay, Canis lupus familiaris.
The subject of assay [14] is Canis familiaris. The assay can be described thus: Time required for vasodilator response at 0.80 mg/kg dose; range 10-30. The class given is functional, Canis lupus familiaris. The note with it: dose 0.8 mg/kg.
Assay [15] has as its system Canis familiaris. The assay can be described thus: Time required for vasodilator response at 0.80 mg/kg dose; range 30-45. The settings on record: dose 0.8 mg/kg. It counts as functional, Canis lupus familiaris.
Assay [16] has as its system Canis familiaris. The assay can be described thus: Time required for inotropic response at 0.80 mg/kg dose; range 30-45. The settings on record: dose 0.8 mg/kg. The class given is functional, Canis lupus familiaris.

Each structure is given as a SMILES string. Activity calls are given as the source filed them. The rule behind the calls is not given here.

In the assay filed under Canis familiaris [1], `COc1cc(OS(C)(=O)=O)ccc1-c1cn2ccnc(OC)c2n1` had an ED10 of 0.05 mg/kg. For the same compound, in assay [2], the Ratio turned out to be 1.2. The Duration in the assay with Canis familiaris [3] was 45 min; in the assay on Canis familiaris [4], 2 min. The compound further gave an ED30 in the assay listed under Canis familiaris [5] of 0.06 mg/kg. In the assay filed under Cavia porcellus [6], the pA50 result was “Insoluble”. The ED50 with Canis familiaris [7] was found to be 0.07 mg/kg.
In the case of `COc1cc(C(N)=O)ccc1-c1cn2ccncc2n1`, the ED10 in the assay listed under Canis familiaris [1] is 0.02 mg/kg. The Ratio in [2] worked out at 0.4. In addition, the Duration was <5 min in the assay with Canis familiaris [8] and >30 min in the assay on Canis familiaris [9]. Moreover, the ED30 in the assay listed under Canis familiaris [5] amounted to 0.05 mg/kg. Further, the pA50 in the assay filed under Cavia porcellus [10] worked out at 4.68. Moreover, the ED50 in the assay on Canis familiaris [7] was found to be 0.02 mg/kg.
As for `COc1cc(OS(C)(=O)=O)ccc1-c1cn2ccncc2n1`, the pA50 result in the assay listed under Cavia porcellus [11] was “inactive”.
In the case of `COc1cc([S+](C)[O-])ccc1-c1nc2cnccc2[nH]1` (stereo unspecified) [ISOMAZOLE], the ED10 in the assay listed under Canis familiaris [1] was determined as 0.06 mg/kg. For the same compound, the Ratio in assay [2] is on record as 0.32. This compound also gave an ED30 in the assay listed under Canis familiaris [5] of 0.19 mg/kg. For the same compound, the Duration is given as 15 min with Canis familiaris [12] and 20 min in the assay with Canis familiaris [13]. Moreover, the pA50 in the assay filed under Cavia porcellus [10] is recorded as 4.64. Further, the “Log IC50” value on Phosphodiesterase 3 is -4.5. Also, it took a dose of 0.06 mg/kg to reach the 50% effect level in the assay on Canis familiaris [7] (ED50).
`COc1cc([S+](C)[O-])ccc1-c1cn2ccnc(OC)c2n1` (stereo unspecified) had an ED10 in the assay listed under Canis familiaris [1] of 0.11 mg/kg. Moreover, in assay [2], the Ratio worked out at 0.08. Further, the Duration in the assay with Canis familiaris [8] was 2 min; with Canis familiaris [9], 60 min. Further, the ED30 in the assay filed under Canis familiaris [5] came out at 1.17 mg/kg. For the same compound, the pA50 in the assay filed under Cavia porcellus [10] was determined as 4.82. Moreover, at Phosphodiesterase 3, the “Log IC50” value is listed as -4.4. For the same compound, the median effective dose (ED50) in the assay on Canis familiaris [7] stood at 0.09 mg/kg.
Turning to `Cc1[nH]c(=O)c(C#N)cc1-c1ccncc1` [MILRINONE], the ED10 in the assay filed under Canis familiaris [1] came to 0.02 mg/kg. Besides, in assay [2], the Ratio stood at 0.3. For the same compound, the Duration is 45 min in the assay on Canis familiaris [3] and 10 min in the assay on Canis familiaris [14]. Further, the ED30 in the assay filed under Canis familiaris [5] came out at 0.06 mg/kg. This compound also registered a median effective dose (ED50) in the assay on Canis familiaris [7] of 0.02 mg/kg.
In turn, `COc1cc(C(N)=O)ccc1-c1nc2cc[nH]cc-2n1` had a pA50 in the assay filed under Cavia porcellus [10] of 4.43. For the same compound, the median effective dose (ED50) in the assay on Canis familiaris [7] came to 0.01 mg/kg.
The like results for `COc1cc([S+](C)[O-])ccc1-c1cn2cccnc2n1` (stereo unspecified) were, in that order, 4.63 and 2.4 mg/kg.
The like results for `COc1cc([S+](C)[O-])ccc1-c1nc2c(OC)nccc2[nH]1` (stereo unspecified) were, in that order, 3.91 and 0.13 mg/kg.
`COc1cc([S+](C)[O-])ccc1-c1nc2cccnc2[nH]1` (stereo unspecified) [SULMAZOLE] registered an ED10 in the assay filed under Canis familiaris [1] of 0.5 mg/kg. In addition, the Duration with Canis familiaris [8] and in the assay on Canis familiaris [9] was 30 min in each case. For the same compound, the ED30 in the assay filed under Canis familiaris [5] was 1.25 mg/kg. This compound showed a pA50 in the assay filed under Cavia porcellus [10] of 4.7. The same compound registered an ED50 in the assay with Canis familiaris [7] of 0.8 mg/kg.
Turning to `COc1cc(C(N)=O)ccc1-c1cn2ccnc(OC)c2n1`, the Duration with Canis familiaris [15] and in the assay with Canis familiaris [16] was 30 min throughout. The same compound registered an ED10 in the assay listed under Canis familiaris [1] of 0.06 mg/kg. For the same compound, in assay [2], the Ratio is given as 0.04. Further, the ED30 in the assay listed under Canis familiaris [5] turned out to be 0.15 mg/kg. Besides, the pA50 result in the assay listed under Cavia porcellus [6] is “Insoluble”. The compound also showed an ED50 in the assay with Canis familiaris [7] of 0.06 mg/kg.
Consider `COc1cc([S+](C)[O-])ccc1-c1cn2ccncc2n1` (stereo unspecified), for which the ED10 in the assay listed under Canis familiaris [1] was determined as 0.28 mg/kg. Besides, the Ratio in [2] came to 25. The Duration was >90 min in the assay with Canis familiaris [8] and 5 min with Canis familiaris [9]. In addition, the ED30 in the assay filed under Canis familiaris [5] was found to be 0.03 mg/kg. This compound returned a pA50 in the assay filed under Cavia porcellus [10] of 5.39. For the same compound, the “Log IC50” value on Phosphodiesterase 3 is recorded as -5. It took a dose of 0.75 mg/kg to reach the 50% effect level with Canis familiaris [7] (ED50).
Take `COc1cc(OS(C)(=O)=O)ccc1-c1nc2cc[nH]cc-2n1`: the pA50 in the assay filed under Cavia porcellus [10] is <5. Moreover, the 50% effect level in the assay with Canis familiaris [7] (ED50) was put at a dose of 0.002 mg/kg.
